Patent US20060264460A1 (Wyeth, priority 2005, published 2006)

target: T1, human Cot/Tpl2 kinase (Homo sapiens, UniProt P41279); experiment: Tpl2/Cot kinase assay: GST-MEK1 phosphorylation detected by ELISA (DELFIA Eu); format: biochemical; settings: 0.4 nM Tpl2, 35 nM GST-MEK1, 50 uM ATP, 1 h at 30° C.
T1 construct: human Cot/Tpl2 kinase construct encoding residues 30-398; 6His (N); made in house; host or cells: Sf9 insect cells, baculovirus system (BD Biosciences)
In short: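 Substrate phosphorylation (GST-MEK1 Ser217/221) quantified by DELFIA europium ELISA, yielding IC50 values. Reaction: 1 h at 30° C, pH 7.2 MOPS buffer, 50 uM ATP, 35 nM GST-MEK1, 0.4 nM monomeric His-Tpl2 purified from Sf9 cells, compounds at 1% final DMSO; stopped with EDTA.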

T1 sequence (P41279 30-398): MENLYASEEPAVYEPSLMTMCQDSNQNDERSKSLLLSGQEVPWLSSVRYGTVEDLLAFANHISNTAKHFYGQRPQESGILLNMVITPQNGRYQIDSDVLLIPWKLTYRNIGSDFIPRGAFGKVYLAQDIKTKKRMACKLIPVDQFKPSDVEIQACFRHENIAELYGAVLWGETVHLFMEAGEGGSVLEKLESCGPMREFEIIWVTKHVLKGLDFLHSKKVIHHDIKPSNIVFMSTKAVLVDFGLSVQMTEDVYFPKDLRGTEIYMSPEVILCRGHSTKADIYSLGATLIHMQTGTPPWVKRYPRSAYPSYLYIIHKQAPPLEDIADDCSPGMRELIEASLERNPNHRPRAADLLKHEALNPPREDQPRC

Point of comparison: CN(C)C(=O)c1cc(NCC2CCCCC2)cc2c(Nc3ccc(F)c(Cl)c3)c(C#N)cnc12 [Example 82, 4-(3-chloro-4-fluorophenylamino)-3-cyano-6-(cyclohexylmethylamino)-N,N-dimethylquinoline-8-carboxamide], IC50 3900 nM. Against it:
- Cc1c(CNc2ccc3ncc(C#N)c(Nc4ccc(F)c(Cl)c4)c3c2)ncn1CCN1CCOCC1 [Example 129, 4-(3-chloro-4-fluorophenylamino)-6-((5-methyl-1-(2-morpholinoethyl)-1H-imidazol-4-yl)methylamino)quinoline-3-carbonitrile] — 280-fold lower, 14 nM
- N#Cc1cnc2ccc(NCc3cccc[n+]3[O-])cc2c1Nc1ccc(F)c(Cl)c1 [Example 39, 4-(3-Chloro-4-fluoro-phenylamino)-6-[(1-oxy-pyridin-2-ylmethyl)-amino]-quinoline-3-carbonitrile] — 350-fold lower, 11 nM
- N#Cc1cnc2c(Cl)cc(NCc3ccnc4ccccc34)cc2c1Nc1ccc(F)c(Cl)c1 [Example 278, 8-Chloro-4-[(3-chloro-4-fluorophenyl)amino]-6-[(quinolin-4-ylmethyl)amino]quinoline-3-carbonitrile] — 8.5-fold lower, 460 nM
- N#Cc1cnc2c(Cl)cc(NCCn3ccnc3)cc2c1Nc1ccc(F)c(Cl)c1 [Example 212, 8-chloro-4-[(3-chloro-4-fluorophenyl)amino]-6-{[2-(1H-imidazol-1-yl)ethyl]amino}quinoline-3-carbonitrile] — 9.8-fold lower, 400 nM
- CC(C)(C)OC(=O)COc1ccc(C#N)cc1CNc1ccc2ncc(C#N)c(Nc3ccc(F)c(Cl)c3)c2c1 [Example 45, (2-{[4-(3-Chloro-4-fluoro-phenylamino)-3-cyano-quinolin-6-ylamino]-methyl)-4-cyano-phenoxy)-acetic acid tert-butyl ester] — 3.8-fold higher, 14700 nM
- Cc1cccc(CNc2cc(Cl)c3ncc(C#N)c(Nc4ccc(F)c(Cl)c4)c3c2)[n+]1[O-] [Example 195, 8-chloro-4-[(3-chloro-4-fluorophenyl)amino]-6-{[(6-methyl-1-oxidopyridin-2-yl)methyl]amino}quinoline-3-carbonitrile] — 120-fold lower, 32 nM
- Cc1ccc[n+]([O-])c1CNc1cc(Cl)c2ncc(C#N)c(Nc3ccc(F)c(Cl)c3)c2c1 [Example 196, 8-chloro-4-[(3-chloro-4-fluorophenyl)amino]-6-{[(3-methyl-1-oxidopyridin-2-yl)methyl]amino}quinoline-3-carbonitrile] — 59-fold lower, 66 nM
- N#Cc1cnc2c(Br)cc(NCc3cnc[nH]3)cc2c1NC1CCCCCC1 [Example 97, 6-((1H-imidazol-5-yl)methylamino)-8-bromo-4-(cycloheptylamino)quinoline-3-carbonitrile] — 17-fold lower, 230 nM
- Cn1nc(C(C)(C)C)cc1Nc1c(C#N)cnc2ccc(NCc3cnc[nH]3)cc12 [Example 261, 4-[(3-tert-butyl-1-methyl-1H-pyrazol-5-yl)amino]-6-[(1 H-imidazol-5-ylmethyl)amino]quinoline-3-carbonitrile] — higher, > 40000 nM
- CN(C)C(=O)c1ccc2cc(CNc3ccc4ncc(C#N)c(Nc5ccc(F)c(Cl)c5)c4c3)[nH]c2c1 [Example 155, 2-((4-(3-chloro-4-fluorophenylamino)-3-cyanoquinolin-6-ylamino)methyl)-N,N-dimethyl-1H-indole-6-carboxamide] — 2.6-fold lower, 1500 nM
- COCCOc1ccc(CNc2ccc3ncc(C#N)c(Nc4ccc(F)c(Cl)c4)c3c2)cc1C#N [Example 25, 4-(3-Chloro-4-fluoro-phenylamino)-6-[3-cyano-4-(2-methoxy-ethoxy)-benzylamino]-quinoline-3-carbonitrile] — 48-fold lower, 82 nM
- N#Cc1cnc2ccc(NCc3cccc(Br)c3)cc2c1Nc1ccc(F)c(Cl)c1 [Example 147, 6-(3-bromobenzylamino)-4-(3-chloro-4-fluorophenylamino)quinoline-3-carbonitrile] — 2.4-fold lower, 1600 nM
- Cc1c(CNc2cc(Cl)c3ncc(C#N)c(Nc4ccc(F)c(Cl)c4)c3c2)ncn1C [Example 183, 8-chloro-4-(3-chloro-4-fluorophenylamino)-6-((1,5-dimethyl-1H-imidazol-4-yl)methylamino)quinoline-3-carbonitrile] — 180-fold lower, 22 nM
- CCOC(=O)/C=C/c1cc(NCc2cnc[nH]2)cc2c(Nc3ccc(F)c(Cl)c3)c(C#N)cnc12 [Example 312, Ethyl(2E)-3-{4-[(3-chloro-4-fluorophenyl)amino]-3-cyano-6-[(1H-imidazol-5-ylmethyl)amino]quinolin-8-yl}acrylate] — 2.5-fold higher, 9700 nM
- N#Cc1cnc2c(Cl)cc(NCc3nnn4ccccc34)cc2c1Nc1ccc(F)c(Cl)c1 [Example 216, 6-([1,2,3]triazolo[1,5-a]pyridin-3-ylmethylamino)-8-chloro-4-(3-chloro-4-fluorophenylamino)quinoline-3-carbonitrile] — 660-fold lower, 5.9 nM

same assay, conditions: Table 2; Tpl2/Cot kinase, GST-MEK1 substrate, 50 uM ATP

Point of comparison: CC(C)(C)OC(=O)N1CCCN(CCCn2cc(CNc3cc(Br)c4ncc(C#N)c(Nc5ccc(F)c(Cl)c5)c4c3)nn2)CC1 [Example 589], IC50 520 nM. Against it:
- CC(C)(C)Nc1c(C#N)cnc2ccc(NCc3cccc[n+]3[O-])cc12 [Example 406] — 10-fold higher, 5400 nM
- N#Cc1cnc2c(Cl)cc(NCC(=O)O)cc2c1Nc1ccc(F)c(Cl)c1 [Example 465] — 10-fold lower, 51 nM
- CN1CCC(CCn2cc(CNc3cc(Cl)c4ncc(C#N)c(Nc5ccc(F)c(Cl)c5)c4c3)nn2)CC1 [Example 521] — 14-fold lower, 38 nM
- CC(C)(C)OC(=O)COc1ccc(CNc2ccc3ncc(C#N)c(Nc4ccc(F)c(Cl)c4)c3c2)cc1Br [Example 381] — higher, > 40000 nM
- N#Cc1cnc2ccc(NCCN3CCOCC3)cc2c1Nc1ccc(Cc2ccccc2)cc1 [Example 391] — 20-fold lower, 26 nM
- COCCOCCn1cc(CNc2cc(Cl)c3ncc(C#N)c(Nc4ccc(F)c(Cl)c4)c3c2)nn1 [Example 564] — 25-fold lower, 21 nM
- N#Cc1cnc2c(Cl)cc(NCc3cn(CCOC(N)=O)nn3)cc2c1Nc1ccc(F)c(Cl)c1 [Example 599] — 88-fold lower, 5.9 nM
- CCOC(=O)CNc1cc(Cl)c2ncc(C#N)c(Nc3ccc(F)c(Cl)c3)c2c1 [Example 475] — 2.7-fold higher, 1400 nM
- N#Cc1cnc2c(Cl)cc(NCC(=O)N3CCNCC3)cc2c1Nc1ccc(F)c(Cl)c1 [Example 470] — within 1.5-fold, 420 nM
- N#Cc1cnc2c(Cl)cc(NCc3cn(C4CCOCC4)nn3)cc2c1Nc1ccc(F)c(Cl)c1 [Example 570] — 37-fold lower, 14 nM
- N#Cc1cnc2c(Cl)cc(NCc3cn(Cc4ccccn4)cn3)cc2c1Nc1ccc(F)c(Cl)c1 [Example 621] — 13-fold lower, 41 nM
- N#Cc1ccccc1CNc1ccc2ncc(C#N)c(NC3CCCC3)c2c1 [Example 416] — 3.3-fold higher, 1700 nM
- CCCc1[nH]cnc1CNc1cc(Cl)c2ncc(C#N)c(Nc3ccc(F)c(Cl)c3)c2c1 [Example 443] — 21-fold lower, 25 nM
- N#Cc1cnc2c(Br)cc(NCc3cn(Cc4cccnc4)cn3)cc2c1Nc1ccc(F)c(Cl)c1 [Example 533] — 170-fold lower, 3.1 nM
- CN1CCC(Nc2ccc3ncc(C#N)c(Nc4ccc(F)c(Cl)c4)c3c2)CC1 [Example 364] — higher, > 10000 nM
- CNCCn1cc(CNc2cc(Cl)c3ncc(C#N)c(Nc4ccc(F)c(Cl)c4)c3c2)nn1 [Example 513] — 18-fold lower, 29 nM
- N#Cc1c(Nc2ccc(F)c(Cl)c2)c2cc(NCc3cccc[n+]3[O-])ccc2[nH]c1=O [Example 422] — higher, > 40000 nM
- CC(C)(C)Nc1c(C#N)cnc2ccc(NCc3ccn[nH]3)cc12 [Example 405] — higher, > 40000 nM

same assay, conditions: Tpl2/Cot kinase, GST-MEK1 substrate, 50 uM ATP

Point of comparison: CN1CCC(Cn2cc(CNc3cc(Br)c4ncc(C#N)c(Nc5ccc(F)c(Cl)c5)c4c3)nn2)CC1 [Example 680], IC50 12 nM. Against it:
- N#Cc1cnc2c(Br)cc(NCc3cn(CCCN4CCCCC4)nn3)cc2c1Nc1ccc(F)c(Cl)c1 [Example 711] — 3.5-fold lower, 3.4 nM
- N#Cc1cnc2c(Cl)cc(NCc3cn(CCOCCOCCO)nn3)cc2c1Nc1ccc(F)c(Cl)c1 [Example 742] — 7.6-fold higher, 91 nM
- N#Cc1cnc2c(Cl)cc(NC3CCN(Cc4cccnc4)CC3)cc2c1Nc1ccc(F)c(Cl)c1 [Example 869] — 68-fold higher, 820 nM
- CN(C)CCc1nc[nH]c1CNc1cc(Br)c2ncc(C#N)c(Nc3ccc(F)c(Cl)c3)c2c1 [Example 745] — 20-fold higher, 240 nM
- N#Cc1cnc2c(Cl)cc(NCC(=O)Nc3cccnc3)cc2c1Nc1ccc(F)c(Cl)c1 [Example 773] — 9.2-fold higher, 110 nM
- N#Cc1cnc2c(Cl)cc(NCc3nc[nH]n3)cc2c1Nc1ccc(F)c(Cl)c1 [Example 666] — 8.3-fold higher, 100 nM
- N#Cc1cnc2c(Cl)cc(NCC(=O)Nc3ccncc3)cc2c1Nc1ccc(F)c(Cl)c1 [Example 774] — 200-fold higher, 2400 nM
- CN(C)C(=O)Cn1cc(CN(C)c2cc(Cl)c3ncc(C#N)c(Nc4ccc(F)c(Cl)c4)c3c2)nn1 [Example 851] — 12-fold higher, 150 nM
- N#Cc1cnc2c(Br)cc(NCc3cn(C4CCCC4)cn3)cc2c1Nc1ccc(F)c(Cl)c1 [Example 799] — 19-fold higher, 230 nM
- N#Cc1cnc2c(Cl)cc(NCc3cn(-c4cc[n+]([O-])cc4)nn3)cc2c1Nc1ccc(F)c(Cl)c1 [Example 749] — within 1.5-fold, 16 nM
- CC(=O)N1CCC(Nc2cc(Cl)c3ncc(C#N)c(Nc4ccc(F)c(Cl)c4)c3c2)CC1 [Example 873] — 55-fold higher, 660 nM

same assay, conditions: Tpl2/Cot kinase, GST-MEK1 substrate, 50 uM ATP, 1 h at 30° C.; Table 2

Point of comparison: CC(C)N1CCC(c2cncc(CNc3cc(Cl)c4ncc(C#N)c(Nc5ccc(F)c(Cl)c5)c4c3)c2)CC1 [Example 1061], IC50 600 nM. Against it:
- N#Cc1cnc2c(Cl)cc(NCc3cn(C4CCN(CC(F)(F)C(F)(F)F)CC4)nn3)cc2c1Nc1ccc(F)c(Cl)c1 [Example 1017] — 1.7-fold higher, 1040 nM
- N#Cc1cnc2c(Cl)cc(NCc3cn(C4CCOC4=O)nn3)cc2c1Nc1ccc(F)c(Cl)c1 (centres unmarked) [Example 934] — 33-fold lower, 18 nM
- CCN1CCC(O)(c2cncc(CNc3cc(Cl)c4ncc(C#N)c(Nc5ccc(F)c(Cl)c5)c4c3)c2)CC1 [Example 1034] — 1.5-fold lower, 400 nM
- N#Cc1cnc2c(Cl)cc(NCc3cn(C4CCN(CC(F)(F)F)CC4)nn3)cc2c1Nc1ccc(F)c(Cl)c1 [Example 1014] — 2.1-fold lower, 280 nM
- N#Cc1cnc2c(Cl)cc(NCc3cn(C4CCNCC4)nn3)cc2c1NC1CCCC2(CCCC2)C1 (centres unmarked) [Example 979] — 1.6-fold higher, 970 nM
